Source: US4198405A, “Prostaglandine derivatives” (priority 1978, dated 1980)
“Also recorded” adds a separate entry of the source.

What was measured:
estrogen receptor = test: Competitive receptor assay with 3H-estradiol in rabbit uterus; assay type: binding; details: for binding to the estrogen receptor: in accordance with the method of Example 1
Protocol: Binding function of estradiol and the PGFE to each uterus of rabbit were measured by the competitive receptor assay. Estradiol labelled by tritium (^3 H) was incubated with uterus of rabbit to bind it and then, estradiol or the PGFE was added to the system to measure the amount of free ^3 H-estradiol which was replaced by the added estradiol or the PGFE.

rats (uterus) = test: Hysterotrimus and cardiac activity by intravenous injection to rats
ICR-JCL pregnant mice [1] = test: Efficiency of abortion, summary in words of the tests in pregnant mice; assay type: in vivo; details: for abortion (in words): continuous administration during 4 days; for abortion effect in comparison with PGF2 α: suitable administrations and doses; for efficiency of abortion compared with PGF2 α: intravenous and subcutaneous, 4 days
Protocol: The efficiency of abortion of PGFE,PGFE-4AC and PGFE-3AC are tested as pharmacological effects in suitable administrations and doses by using ICR-JCL pregnant mice.
(§1) The continuous administrations were applied to ICR-JCL mice of the sixth day of pregnancy (5 mice as one group) to examine the efficiency of the abortion obtained by the drugs of this invention in comparison with that of PGF2 α. After 0.2 ml of 5% ethanol-saline solution containing the PGFE-3AC, the PGFE-4AC or PGF2 α was given to the mice once a day during 4 days by intravenous injection and subcutaneous injection at some dose, their breeding were continued to confirm the abortion of the group administrated with the drugs until the partus of the control group administrated with only ethanol saline solution.

ICR-JCL pregnant mice [2] = test: Abortion test, intravenous injection once a day during 4 days (Table 1); assay type: in vivo; details: i.v. once a day
Protocol: The abortion was studied with ICR-JCL pregnant mice by the continuous administration of the drug during 4 days and the side-effect in the administration was also examined. After 0.2 ml of 50% ethanol-saline solution containing the PGFE at dose 10γ and 30γ/mouse or PGF2 α at dose 15γ/mouse(equimole of PGFE 30γ) was intravenously injected to the mice once a day during 4 days, their breedings were continued to confirm the abortion of the group administrated with the drugs until the partus of the control group administrated with only ethanol saline solution.

ICR-JCL female mice = test: Acute toxicity (LD50), intravenous injection; assay type: in vivo; details: for survival of mice (acute toxicity) / abnormality observed: 400 mg/kg; for survival of mice (acute toxicity): 10 mice; for LD50 (in words): 7 days, Litchfield-Wilcoxon graph method
Protocol: Acute toxicities (LD50) of PGFE,PGFE-4AC and PGFE-3A are measured by intravenous injections at a dose of 400 mg/kg to ten of ICR-JCL female mice (4 weeks age).
(§2) Acute toxicity (LD50) and abnormal tachycardia, respirogram and electrocardiogram by a biophysiograph were tested.
In the measurement of LD50, 10ICR-JCL female mice (4 week age) were used as one group. 0.2 ml of 50% ethanol-saline solution containing the drug of this invention was intravenously injected to the mice at several doses during 7 days to obtain their value of LD50 by Litchfield-Wilcoxon graph method.

ICR-JCL pregnant mice [3] = test: Side-effect test: tachycardia, respirogram and electrocardiogram by biophysiograph; assay type: in vivo; details: for abnormal condition in tachycardia, respirogram and electrocardiogram: mice in pregnancy, before and after administration; for tachycardia, respirogram and electrocardiogram compared with control: intravenous
Protocol: The tachycardia, respirogram and electrocardiogram of mice in pregnancy before and after the administration of PGF2 α, PGFE, PGFE-4AC and PGFE-3AC are tested by a biophysiograph 180-4(4ch) (manufactured by San-ei Sokuki K.K.).
as §2
Electrocardiogram was measured by a biophysiograph 180-4 (4 ch) (manufactured by San-ei Sokuki K.K.) for ICR-JCL pregnant mice (6th day) at 3 minutes after the administration of each sample.
In the test, 0.2 ml of 50% ethanol-saline solution was intravenously injected to the mice at a dose of 30γ per mouse. As the reference, the PGF2 α was also used as the sample (a dose of 15γ per mouse).
The results of the measurements are shown in FIGS. 2 to 5 wherein mV is given on ordinate and time (second) is given on abscissas and the chart speed was 250 mm/sec.

[4] = tested on: ICR-JCL mice of the sixth day of pregnancy; test: Test of abortion by intravenous injection, 4 days (Table 3); assay type: in vivo; details: i.v. once a day
Protocol: as §1, with “[…],” for “PGFE-3AC,”, “PGFE-4AC” left out

[5] = tested on: ICR-JCL mice of the sixth day of pregnancy; test: Test of abortion by subcutaneous injection, 4 days (Table 2); assay type: in vivo; details: s.c. once a day
Protocol: as §1, with “[…],” for “PGFE-3AC,”, “PGFE-4AC” left out

[6] = in accordance with the method of Example 1
[7] = 30γ/mouse, 3 minutes after administration

CCCCC[C@H](O)/C=C/[C@H]1[C@H](O)CC(=O)[C@@H]1C/C=C\CCCC(=O)OCC(=O)OCC(=O)[C@H]1CC[C@H]2[C@@H]3CCC4=CC(=O)CC[C@]4(C)[C@H]3CC[C@]12C [PGE2 P]
binding to the estrogen receptor (estrogen receptor): bonded to the estrogen receptor
hysterotrimus (rats (uterus); [6]): cause hysterotrimus

CCCCC[C@H](O)/C=C/[C@@H]1[C@@H](C/C=C\CCCC(=O)OCC(=O)O[C@H]2CC[C@H]3[C@@H]4CCc5cc(O)ccc5[C@H]4CC[C@]23C)[C@@H](O)C[C@H]1O [PGFE, estra-1,3,5(10)-triene-3-hydroxy-17-oxycarbonylmethyl-9α,11α,15α-trihydroxy-5(cis)-13(trans)prostadienoate]
abortion (in words) (ICR-JCL pregnant mice [1]; same dose as PGF2 α or less): satisfied results are obtained
abortion effect in comparison with PGF2 α (ICR-JCL pregnant mice [1]): greatly superior effect
binding function to estrogen receptor (estrogen receptor; uterus of rabbit, displacement of 3H-estradiol, FIG. 1): has the binding function to estrogen receptor as the same with the estradiol itself
Effect of abortion (ICR-JCL pregnant mice [2]; 10 γ/mouse): 100%
Result of parturition (5 mice in group) (ICR-JCL pregnant mice [2]; 10 γ/mouse): 0
Effect of abortion (ICR-JCL pregnant mice [2]; 30 γ/mouse): 100%
Result of parturition (5 mice in group) (ICR-JCL pregnant mice [2]; 30 γ/mouse): 0
survival of mice (acute toxicity) (ICR-JCL female mice): All of mice (10) are survived
hysterotrimus (rats (uterus); 5 to 50γ (printed "5 L to 50γ"), intravenous, rats): gaved of the hysterotrimus
cardiac activity (rats (uterus); 50γ, intravenous, rats): the cardiac activity was in the normal condition
beginning of hysterotrimus in comparison with PGF2 α (rats (uterus); intravenous, rats): some delay in the beginning of hystrotrimus
side-effect (rats (uterus); up to 50γ, intravenous, rats): no side-effect was found
abnormal condition in tachycardia, respirogram and electrocardiogram (ICR-JCL pregnant mice [3]): any abnormal condition is not observed

CCCCC[C@H](O)/C=C/[C@@H]1[C@@H](C/C=C\CCCC(=O)OC2CC[C@H]3[C@@H]4CCc5cc(O)ccc5[C@H]4CC[C@]23C)[C@@H](O)C[C@H]1O (stereo partly shown) [Example 2]
binding to the estrogen receptor (estrogen receptor): bonded to the estrogen receptor
hysterotrimus (rats (uterus); [6]): cause hysterotrimus

CCCCC[C@@H](/C=C/[C@@H]1[C@@H](C/C=C\CCCC(=O)OCC(=O)O[C@H]2CC[C@H]3[C@@H]4CCc5cc(O)ccc5[C@H]4CC[C@]23C)[C@@H](OC(C)=O)C[C@H]1OC(C)=O)OC(C)=O [PGFE-3AC, estra-1,3,5(10)-triene-3-hydroxy-17-oxycarbonylmethyl-9α,11α,15α-triacetoxy-5(cis)-13(trans)-prostadienoate]
efficiency of abortion compared with PGF2 α (ICR-JCL pregnant mice [1]): remarkably superior
abortion (in words) (ICR-JCL pregnant mice [1]; same dose as PGF2 α or less): satisfied results are obtained
abortion effect in comparison with PGF2 α (ICR-JCL pregnant mice [1]): greatly superior effect
Efficiency of abortion ([4]; 1.0 .tau./mouse): 20%
Result of parturition (5 mice in group) ([4]; 1.0 .tau./mouse): 4
Efficiency of abortion ([4]; 2.5 .tau./mouse): 60%
Result of parturition (5 mice in group) ([4]; 2.5 .tau./mouse): 2
Efficiency of abortion ([4]; 5.0 .tau./mouse): 100%
Result of parturition (5 mice in group) ([4]; 5.0 .tau./mouse): 0
Efficiency of abortion ([5]; 15 .tau./mouse): 100%
Result of parturition (5 mice in group) ([5]; 15 .tau./mouse): 0
abnormality observed (ICR-JCL female mice): any abnormality was not observed
survival of mice (acute toxicity) (ICR-JCL female mice): all of the mice were survived
survival of mice (acute toxicity) (ICR-JCL female mice; listed as PGFE-3A): All of mice (10) are survived
LD50 (in words) (ICR-JCL female mice): too high to be impossible to measure directly
tachycardia, respirogram and electrocardiogram compared with control (ICR-JCL pregnant mice [3]; [7]): substantially the same with those of the control
abnormal condition in tachycardia, respirogram and electrocardiogram (ICR-JCL pregnant mice [3]): any abnormal condition is not observed

CCCCC[C@H](O)/C=C/[C@@H]1[C@@H](C/C=C\CCCC(=O)O)[C@@H](O)C[C@H]1O [PGF2 α, 9α,11α,15α-trihydroxy-5(cis)-13(trans)-prostadienoic acid, reference compound]
abortion (in words) (ICR-JCL pregnant mice [1]; 15α (4.24×10^-8 moles)/mouse): The abortion is incomplete
Efficiency of abortion ([4]; 2.5 .tau./mouse): 0%
Result of parturition (5 mice in group) ([4]; 2.5 .tau./mouse): 5
Efficiency of abortion ([4]; 5.0 .tau./mouse): 0%
Result of parturition (5 mice in group) ([4]; 5.0 .tau./mouse): 5
Efficiency of abortion ([4]; 15.0 .tau./mouse): 20%
Result of parturition (5 mice in group) ([4]; 15.0 .tau./mouse): 4
Effect of abortion (ICR-JCL pregnant mice [2]; 15 γ/mouse): 0%
Result of parturition (5 mice in group) (ICR-JCL pregnant mice [2]; 15 γ/mouse): 5
Efficiency of abortion ([5]; 15 .tau./mouse): 0%
Result of parturition (5 mice in group) ([5]; 15 .tau./mouse): 5
Efficiency of abortion ([5]; 30 .tau./mouse): 20%
Result of parturition (5 mice in group) ([5]; 30 .tau./mouse): 4
cardiac activity (rats (uterus); 5γ, intravenous, rats): cardiac stop was caused
hysterotrimus (rats (uterus); 5γ, intravenous, rats): gaved of the hysterotrimus
tachycardia, respirogram and electrocardiogram compared with control (ICR-JCL pregnant mice [3]; 15γ/mouse, 3 minutes after administration (FIG. 3)): abnormally different from those of the control
abnormal condition in tachycardia, respirogram and electrocardiogram (ICR-JCL pregnant mice [3]): abnormal conditions are clearly observed

CCCCC[C@@H](/C=C/[C@@H]1[C@@H](C/C=C\CCCC(=O)OCC(=O)O[C@H]2CC[C@H]3[C@@H]4CCc5cc(OC(C)=O)ccc5[C@H]4CC[C@]23C)[C@@H](OC(C)=O)C[C@H]1OC(C)=O)OC(C)=O [PGFE-4AC, estra-1,3,5(10)-triene-3-acetoxy-17-oxycarbonylmethyl-9α,11α,15α-triacetoxy-5(cis)-13(trans)prostadienoate]
efficiency of abortion compared with PGF2 α (ICR-JCL pregnant mice [1]): remarkably superior
abortion (in words) (ICR-JCL pregnant mice [1]; same dose as PGF2 α or less): satisfied results are obtained
abortion effect in comparison with PGF2 α (ICR-JCL pregnant mice [1]): greatly superior effect
Efficiency of abortion ([4]; 2.5 .tau./mouse): 40%
Result of parturition (5 mice in group) ([4]; 2.5 .tau./mouse): 3
Efficiency of abortion ([4]; 5.0 .tau./mouse): 100%
Result of parturition (5 mice in group) ([4]; 5.0 .tau./mouse): 0
Efficiency of abortion ([5]; 15 .tau./mouse): 100%
Result of parturition (5 mice in group) ([5]; 15 .tau./mouse): 0
Efficiency of abortion ([5]; 30 .tau./mouse): 100%
Result of parturition (5 mice in group) ([5]; 30 .tau./mouse): 0
abnormality observed (ICR-JCL female mice): any abnormality was not observed
survival of mice (acute toxicity) (ICR-JCL female mice): all of the mice were survived; also recorded: All of mice (10) are survived
LD50 (in words) (ICR-JCL female mice): too high to be impossible to measure directly
tachycardia, respirogram and electrocardiogram compared with control (ICR-JCL pregnant mice [3]; [7]): substantially the same with those of the control
abnormal condition in tachycardia, respirogram and electrocardiogram (ICR-JCL pregnant mice [3]): any abnormal condition is not observed
